In patent US12319655B2, “RAF kinase inhibitors and methods of use thereof” (Deciphera Pharmaceuticals, LLC, priority 2021, dated 2025):
pIC50: −log10 of the molar value.

Experiments:
[1] = target: A-Raf kinase (SEQ. ID No: 1) (Homo sapiens (Human), UniProt P10398, Y301D/Y302D); test: Biochemical Assay for A-Raf (1); settings: Table J, assay version (1); read-out: ARAF (1) IC50
Method in brief: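 IC50 values were derived by four-parameter sigmoidal fitting of percent inhibition, calculated from reaction rates over the 4–5 h window. Absorbance at 340 nm was tracked for 6 h at 30 °C via coupled PK/LDH NADH depletion. Conditions: 1 mM ATP, 30.1 nM MEK substrate, 5.55 nM A-Raf (Y301D/Y302D), Tris pH 7.5, 1% DMSO.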

[2] = target: C-Raf kinase (SEQ. ID NO: 3) (Homo sapiens (Human), UniProt P04049, Y340D/Y341D); test: Biochemical Assay for C-Raf (1); settings: Table J, assay version (1); read-out: CRAF (1) IC50
Method in brief: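 IC50 values come from a four-parameter fit of percent inhibition, using the reaction rate over 4–5 h of a 6 h continuous 340 nm read at 30 °C. The enzyme mix was C-Raf 0.43 nM, MEK substrate 30.1 nM and ATP 1 mM, in a PK/LDH NADH-coupled format in Tris pH 7.5 with 1% DMSO.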

[3] = test system: A375 cells; test: A375 Cell Proliferation Assay (1); assay type: cell-based; settings: Homo sapiens, A-375
Method in brief: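 Resazurin fluorescence (excitation 540 nm, emission 600 nm, after a further 5-6 h) gave IC50s from triplicate compound dilution series.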

[4] = test system: Miapaca-2 cells; test: MiaPaca-2 Cell Proliferation Assay (1); assay type: cell-based; settings: Homo sapiens, MIA PaCa-2, single agent, read-out: MiaPaca2 (1) IC50
Method in brief: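 Resazurin was added after compound exposure and incubated 5-6 h, then fluorescence read at 540 nm excitation and 600 nm emission to give IC50.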

Sequence of A-Raf kinase (SEQ. ID No: 1) (P10398 other isoform, or with tags, fused parts or gaps Y301D (already in the parent)/Y302D (already in the parent)): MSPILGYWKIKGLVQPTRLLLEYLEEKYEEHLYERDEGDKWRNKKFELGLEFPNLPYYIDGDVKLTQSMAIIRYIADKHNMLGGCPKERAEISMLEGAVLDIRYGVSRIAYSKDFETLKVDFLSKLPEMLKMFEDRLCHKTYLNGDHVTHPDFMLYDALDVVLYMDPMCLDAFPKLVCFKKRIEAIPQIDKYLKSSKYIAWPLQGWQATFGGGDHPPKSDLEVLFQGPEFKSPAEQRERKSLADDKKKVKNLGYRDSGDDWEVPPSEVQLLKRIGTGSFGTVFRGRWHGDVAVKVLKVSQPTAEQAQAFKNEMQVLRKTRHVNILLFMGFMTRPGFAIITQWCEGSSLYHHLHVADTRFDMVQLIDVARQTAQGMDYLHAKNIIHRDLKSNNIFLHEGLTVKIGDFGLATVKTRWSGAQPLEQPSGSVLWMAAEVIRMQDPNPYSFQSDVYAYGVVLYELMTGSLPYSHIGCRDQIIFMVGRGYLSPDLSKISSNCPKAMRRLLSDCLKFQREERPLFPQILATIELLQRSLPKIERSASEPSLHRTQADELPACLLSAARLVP
Sequence of C-Raf kinase (SEQ. ID NO: 3) (P04049 307-648 Y340D/Y341D): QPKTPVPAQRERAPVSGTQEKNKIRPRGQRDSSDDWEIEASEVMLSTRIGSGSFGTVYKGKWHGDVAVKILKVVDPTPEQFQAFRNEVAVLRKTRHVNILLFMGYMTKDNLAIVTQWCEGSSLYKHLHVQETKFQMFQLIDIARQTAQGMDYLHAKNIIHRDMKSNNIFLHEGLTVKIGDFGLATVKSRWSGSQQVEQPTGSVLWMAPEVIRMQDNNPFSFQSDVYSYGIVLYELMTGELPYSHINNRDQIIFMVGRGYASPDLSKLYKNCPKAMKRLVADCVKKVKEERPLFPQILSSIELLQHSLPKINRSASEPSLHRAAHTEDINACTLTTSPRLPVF

pIC50 [1]	pIC50 [2]	pIC50 [3]	pIC50 [4]	Structure (SMILES)
5.00 to 6.00	≥ 7.00	≥ 7.00	6.00 to 6.30	Cc1ccc(NC(=O)c2ccnc(C(C)(C)C#N)c2)cc1-c1cnnc(-c2ccnc(NC(=O)C3CC3)c2)c1 [Example 230]
5.00 to 6.00	6.30 to 7.00	≥ 7.00	5.00 to 6.00	Cc1ccc(NC(=O)c2ccnc(C(C)(C)C#N)c2)cc1-c1cccc(-c2cc(NC(=O)C3(C)CC3)ncn2)c1 [Example 197]
5.00 to 6.00	≥ 7.00	6.00 to 6.30	5.00 to 6.00	Cc1ccc(NC(=O)c2ccnc(C(C)(C)C#N)c2)cc1-c1cccc(-c2cc(NC(=O)C3CC3)ncn2)n1 [Example 233]
5.00 to 6.00	≥ 7.00	≥ 7.00	5.00 to 6.00	CNC(=O)c1cc(-c2cncc(-c3cc(NC(=O)c4ccnc(C(C)(C)C#N)c4)ccc3C)c2)ncn1 [Example 235]
5.00 to 6.00	≥ 7.00	≥ 7.00	6.00 to 6.30	Cc1ccc(NC(=O)c2ccnc(C(C)(C)C#N)c2)cc1-c1ccnc(-c2ccnc(NC(=O)C3(C#N)CC3)c2)n1 [Example 241]
